From ChEMBL document CHEMBL3132769, “Fragment growing to retain or alter the selectivity of anchored kinase hinge-binding fragments” (Medchemcomm, 2014)

Key:
[1] = target: T1, Serine/threonine-protein kinase Sgk1 (Homo sapiens) (UniProt O00141); assay: Inhibition of human truncated SGK1 expressed in baculovirus assessed as substrate phosphorylation using fluorescence-labelled peptides as substrate at 420 uM after 90 mins by microfluidic peptide phosphorylation assay
T1 sequence (whole entry): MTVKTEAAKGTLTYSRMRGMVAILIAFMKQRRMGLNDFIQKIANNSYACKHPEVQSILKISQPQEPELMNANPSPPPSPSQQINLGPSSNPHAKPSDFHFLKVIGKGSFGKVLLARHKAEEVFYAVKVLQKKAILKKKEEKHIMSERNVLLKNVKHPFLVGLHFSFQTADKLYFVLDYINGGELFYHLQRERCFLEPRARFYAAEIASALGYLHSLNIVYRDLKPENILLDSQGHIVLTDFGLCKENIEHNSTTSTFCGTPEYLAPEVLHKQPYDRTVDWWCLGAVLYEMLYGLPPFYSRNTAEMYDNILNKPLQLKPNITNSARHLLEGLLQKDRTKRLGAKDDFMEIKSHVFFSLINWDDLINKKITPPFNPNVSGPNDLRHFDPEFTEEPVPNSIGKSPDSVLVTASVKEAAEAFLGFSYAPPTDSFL

[2] = target: Tyrosine-protein kinase ABL2 (Homo sapiens) (UniProt P42684); assay: Inhibition of human truncated Arg expressed in baculovirus assessed as substrate phosphorylation using fluorescence-labelled peptides as substrate at 0.1 uM after 90 mins by microfluidic peptide phosphorylation assay
[3] = target: T2, Serine/threonine-protein kinase D1 (Homo sapiens) (UniProt Q15139); assay: Inhibition of human full length PKD1 expressed in baculovirus assessed as substrate phosphorylation using fluorescence-labelled peptides as substrate at 0.1 uM after 90 mins by microfluidic peptide phosphorylation assay
T2 sequence (whole entry): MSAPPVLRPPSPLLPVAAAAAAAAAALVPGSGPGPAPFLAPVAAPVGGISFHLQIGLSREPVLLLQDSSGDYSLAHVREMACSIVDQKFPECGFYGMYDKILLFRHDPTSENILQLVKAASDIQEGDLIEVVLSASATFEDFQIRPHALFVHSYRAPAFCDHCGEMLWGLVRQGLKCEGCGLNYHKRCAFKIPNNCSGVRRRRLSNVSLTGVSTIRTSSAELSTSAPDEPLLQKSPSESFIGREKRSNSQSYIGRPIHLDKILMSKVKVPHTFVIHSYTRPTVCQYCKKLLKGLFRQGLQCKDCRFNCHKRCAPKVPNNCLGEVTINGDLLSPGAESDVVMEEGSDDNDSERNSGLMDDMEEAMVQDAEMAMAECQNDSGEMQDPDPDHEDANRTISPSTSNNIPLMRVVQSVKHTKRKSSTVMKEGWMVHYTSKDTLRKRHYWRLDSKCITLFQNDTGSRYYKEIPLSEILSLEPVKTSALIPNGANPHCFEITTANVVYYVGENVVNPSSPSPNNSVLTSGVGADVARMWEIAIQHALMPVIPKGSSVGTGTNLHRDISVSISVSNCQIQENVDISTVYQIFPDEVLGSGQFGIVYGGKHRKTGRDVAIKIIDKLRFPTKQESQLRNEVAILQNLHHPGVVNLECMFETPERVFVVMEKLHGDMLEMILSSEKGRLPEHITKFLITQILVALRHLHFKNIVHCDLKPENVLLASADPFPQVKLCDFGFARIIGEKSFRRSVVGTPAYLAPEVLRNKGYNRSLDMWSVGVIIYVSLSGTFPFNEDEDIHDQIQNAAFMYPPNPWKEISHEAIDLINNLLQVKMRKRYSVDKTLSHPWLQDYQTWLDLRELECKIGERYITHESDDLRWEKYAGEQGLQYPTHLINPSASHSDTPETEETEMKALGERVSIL

[4] = target: T3, Aurora kinase C (Homo sapiens) (UniProt Q9UQB9); assay: Inhibition of human full length AurC expressed in baculovirus assessed as substrate phosphorylation using fluorescence-labelled peptides as substrate at 9 uM after 90 mins by microfluidic peptide phosphorylation assay
T3 sequence (whole entry): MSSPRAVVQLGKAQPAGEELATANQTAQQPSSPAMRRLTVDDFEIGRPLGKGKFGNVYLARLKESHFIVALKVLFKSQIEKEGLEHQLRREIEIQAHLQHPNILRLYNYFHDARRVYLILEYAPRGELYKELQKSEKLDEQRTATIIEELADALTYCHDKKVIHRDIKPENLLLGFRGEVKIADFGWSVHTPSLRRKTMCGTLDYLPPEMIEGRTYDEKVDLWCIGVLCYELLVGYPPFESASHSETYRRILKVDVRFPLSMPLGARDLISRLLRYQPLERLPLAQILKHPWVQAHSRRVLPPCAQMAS

[5] = target: Fibroblast growth factor receptor 1 (Homo sapiens) (UniProt P11362); assay: Inhibition of human FGFR1 catalytic domain expressed in baculovirus assessed as substrate phosphorylation using fluorescence-labelled peptides as substrate at 1000 uM after 90 mins by microfluidic peptide phosphorylation assay
[6] = target: Receptor-type tyrosine-protein kinase FLT3 (Homo sapiens) (UniProt P36888); assay: Inhibition of human FLT3 catalytic domain expressed in baculovirus assessed as substrate phosphorylation using fluorescence-labelled peptides as substrate at 1000 uM after 90 mins by microfluidic peptide phosphorylation assay
[7] = target: T4, Mitogen-activated protein kinase 13 (Homo sapiens) (UniProt O15264); assay: Inhibition of human full length p38 delta expressed in Escherichia coli cell assessed as substrate phosphorylation using fluorescence-labelled peptides as substrate at 1000 uM after 90 mins by microfluidic peptide phosphorylation assay
T4 sequence (whole entry): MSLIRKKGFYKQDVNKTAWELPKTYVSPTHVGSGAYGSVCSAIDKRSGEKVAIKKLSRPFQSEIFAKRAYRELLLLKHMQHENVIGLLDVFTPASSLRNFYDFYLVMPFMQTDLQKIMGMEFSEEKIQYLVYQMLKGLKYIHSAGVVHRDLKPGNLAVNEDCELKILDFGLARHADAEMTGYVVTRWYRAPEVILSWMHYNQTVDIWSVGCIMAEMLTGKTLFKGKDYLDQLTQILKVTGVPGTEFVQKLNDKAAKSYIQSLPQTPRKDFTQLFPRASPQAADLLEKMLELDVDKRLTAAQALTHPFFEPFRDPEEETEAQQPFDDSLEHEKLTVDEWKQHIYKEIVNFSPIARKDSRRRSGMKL

[8] = target: T4, Mitogen-activated protein kinase 13 (Homo sapiens); assay: Inhibition of human full length p38 delta expressed in Escherichia coli cell assessed as substrate phosphorylation using fluorescence-labelled peptides as substrate at 2 uM after 90 mins by microfluidic peptide phosphorylation assay

Sequence of Fibroblast growth factor receptor 1 (Homo sapiens) (P11362 22-822 limits assumed): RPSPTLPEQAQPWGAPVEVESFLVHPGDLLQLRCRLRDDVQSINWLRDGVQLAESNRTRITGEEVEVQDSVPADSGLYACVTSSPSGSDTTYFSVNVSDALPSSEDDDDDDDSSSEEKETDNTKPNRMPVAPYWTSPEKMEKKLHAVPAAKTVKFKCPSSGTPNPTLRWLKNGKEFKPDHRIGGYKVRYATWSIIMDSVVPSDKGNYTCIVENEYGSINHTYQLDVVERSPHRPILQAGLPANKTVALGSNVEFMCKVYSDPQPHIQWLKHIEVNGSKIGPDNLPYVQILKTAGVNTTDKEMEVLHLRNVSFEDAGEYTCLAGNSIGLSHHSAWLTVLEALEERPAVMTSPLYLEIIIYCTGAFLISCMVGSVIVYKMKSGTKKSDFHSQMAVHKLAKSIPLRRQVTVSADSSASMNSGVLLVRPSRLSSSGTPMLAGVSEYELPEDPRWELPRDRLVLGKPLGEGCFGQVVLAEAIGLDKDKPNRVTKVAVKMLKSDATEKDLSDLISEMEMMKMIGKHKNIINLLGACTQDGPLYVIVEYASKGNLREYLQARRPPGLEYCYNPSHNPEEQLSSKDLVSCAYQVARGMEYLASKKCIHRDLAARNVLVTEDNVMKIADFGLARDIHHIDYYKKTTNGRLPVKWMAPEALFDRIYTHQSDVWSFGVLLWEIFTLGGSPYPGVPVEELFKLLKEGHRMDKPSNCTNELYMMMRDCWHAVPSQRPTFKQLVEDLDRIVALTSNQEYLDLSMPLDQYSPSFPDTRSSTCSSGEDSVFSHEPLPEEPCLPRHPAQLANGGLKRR
Sequence of Receptor-type tyrosine-protein kinase FLT3 (Homo sapiens) (P36888 whole entry, the tested form may be a part): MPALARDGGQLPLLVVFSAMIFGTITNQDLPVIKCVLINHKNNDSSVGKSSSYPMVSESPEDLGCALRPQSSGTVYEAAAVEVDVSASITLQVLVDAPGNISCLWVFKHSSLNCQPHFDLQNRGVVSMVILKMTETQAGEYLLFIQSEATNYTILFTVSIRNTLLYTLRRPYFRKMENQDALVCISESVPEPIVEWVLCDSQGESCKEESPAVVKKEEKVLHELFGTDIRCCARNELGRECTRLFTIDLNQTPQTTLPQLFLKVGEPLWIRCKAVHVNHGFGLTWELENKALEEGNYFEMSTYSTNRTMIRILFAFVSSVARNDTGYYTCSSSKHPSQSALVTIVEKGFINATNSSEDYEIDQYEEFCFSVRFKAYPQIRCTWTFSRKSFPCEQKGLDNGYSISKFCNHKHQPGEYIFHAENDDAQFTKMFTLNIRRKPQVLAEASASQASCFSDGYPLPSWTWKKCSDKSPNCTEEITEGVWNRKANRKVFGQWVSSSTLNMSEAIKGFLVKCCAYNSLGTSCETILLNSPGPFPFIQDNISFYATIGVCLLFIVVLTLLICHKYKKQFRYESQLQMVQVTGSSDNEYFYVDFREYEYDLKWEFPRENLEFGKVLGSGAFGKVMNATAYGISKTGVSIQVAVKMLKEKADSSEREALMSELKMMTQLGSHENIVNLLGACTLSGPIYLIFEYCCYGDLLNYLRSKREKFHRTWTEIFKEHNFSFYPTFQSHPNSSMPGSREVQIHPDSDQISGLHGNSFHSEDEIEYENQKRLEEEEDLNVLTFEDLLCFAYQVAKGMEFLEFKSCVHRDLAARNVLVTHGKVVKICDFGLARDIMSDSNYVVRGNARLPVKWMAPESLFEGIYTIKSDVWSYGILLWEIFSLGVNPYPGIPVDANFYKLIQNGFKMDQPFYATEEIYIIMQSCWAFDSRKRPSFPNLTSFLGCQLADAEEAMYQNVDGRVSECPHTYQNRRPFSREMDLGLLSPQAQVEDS
Sequence of Tyrosine-protein kinase ABL2 (Homo sapiens) (P42684 whole entry, the tested form may be a part): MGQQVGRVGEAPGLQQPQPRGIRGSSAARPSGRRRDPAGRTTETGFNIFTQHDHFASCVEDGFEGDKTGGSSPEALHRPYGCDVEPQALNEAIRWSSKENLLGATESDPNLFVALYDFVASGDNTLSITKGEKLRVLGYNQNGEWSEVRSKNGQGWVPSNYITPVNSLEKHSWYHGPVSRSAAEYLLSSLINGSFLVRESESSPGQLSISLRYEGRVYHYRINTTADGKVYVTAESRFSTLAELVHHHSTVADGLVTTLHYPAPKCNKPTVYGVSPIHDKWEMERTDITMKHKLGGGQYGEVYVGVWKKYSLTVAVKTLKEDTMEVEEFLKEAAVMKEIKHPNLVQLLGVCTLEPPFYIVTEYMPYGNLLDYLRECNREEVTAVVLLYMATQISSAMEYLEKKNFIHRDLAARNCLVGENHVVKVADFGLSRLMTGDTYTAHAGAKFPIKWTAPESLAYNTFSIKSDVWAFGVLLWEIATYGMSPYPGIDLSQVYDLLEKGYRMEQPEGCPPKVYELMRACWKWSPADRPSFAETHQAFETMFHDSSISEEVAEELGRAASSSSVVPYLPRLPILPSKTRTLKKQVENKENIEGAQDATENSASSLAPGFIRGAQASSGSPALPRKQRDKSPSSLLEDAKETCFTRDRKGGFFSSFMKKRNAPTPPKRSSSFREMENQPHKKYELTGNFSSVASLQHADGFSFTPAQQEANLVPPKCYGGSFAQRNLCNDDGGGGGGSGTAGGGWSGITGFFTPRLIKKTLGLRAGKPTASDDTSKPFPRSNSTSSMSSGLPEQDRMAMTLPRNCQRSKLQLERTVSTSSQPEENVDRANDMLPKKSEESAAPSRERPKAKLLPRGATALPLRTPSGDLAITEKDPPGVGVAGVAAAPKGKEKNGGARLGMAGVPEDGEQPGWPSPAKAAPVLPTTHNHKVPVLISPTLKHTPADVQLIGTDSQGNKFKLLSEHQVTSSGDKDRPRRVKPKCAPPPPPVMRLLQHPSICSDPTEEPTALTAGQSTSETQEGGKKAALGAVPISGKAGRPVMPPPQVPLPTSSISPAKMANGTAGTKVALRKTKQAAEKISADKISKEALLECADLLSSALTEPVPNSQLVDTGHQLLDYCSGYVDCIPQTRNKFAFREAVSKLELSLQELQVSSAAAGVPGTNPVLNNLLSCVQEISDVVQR

Structure (SMILES): c1nc(N2CCOCC2)c2nc[nH]c2n1
- inhibition [1]: 83.5%

Structure (SMILES): C[C@H](CN(C)C)Oc1nc(Nc2cc3cccc(Cl)c3cn2)cnc1C#N
- inhibition [2]: 1.5%
- inhibition [3]: 5%

Structure (SMILES): NCC1CN(c2ncnc3[nH]c4cnccc4c23)CCO1 (stereo not drawn)
- inhibition [4]: 11.5%

Structure (SMILES): c1cnc2[nH]ccc2c1
- inhibition [5]: 64.5%
- inhibition [6]: 75.5%
- inhibition [7]: 51%

Structure (SMILES): NC1CCN(c2ncnc3[nH]ccc23)CC1
- inhibition [8]: 8%
